Data: the NIST ThermoML archive (doi:10.1016/j.fluid.2014.09.017)
Values joined by “and” are separate entries in the source; they are usually repeats but may differ in a detail not shown here. Equal values may be shown once.

Conditions: for vapor or sublimation pressure: Liquid, Closed cell (Static) method; for speed of sound: Gas, Cylindrical cavity resonance method

CC(C)C [2-methylpropane]
Conditions | vapor or sublimation pressure
258.92 K | 91.82 kPa
264.24 K | 112.99 kPa
265.67 K | 119.32 kPa
267.2 K | 126.35 kPa
273 K | 156 kPa
273.15 K | 156.85 kPa
275.31 K | 169.22 kPa
278.94 K | 191.71 kPa
280 K | 198.68 kPa
281.24 K | 207.12 kPa
282.81 K | 218.08 kPa
284.02 K | 226.9 kPa
285.82 K | 240.51 kPa
287.25 K | 251.7 kPa
288.67 K | 263.24 kPa
290 K | 274.38 kPa
291.96 K | 291.5 kPa
291.99 K | 291.68 kPa
293.5 K | 305.47 kPa
294.79 K | 317.56 kPa
296.3 K | 332.18 kPa
299.97 K | 369.83 kPa
301.05 K | 381.52 kPa
302.76 K | 400.6 kPa
304.46 K | 420.14 kPa
305.97 K | 438.06 kPa and 438.12 kPa
307.39 K | 455.55 kPa
308.82 K | 473.64 kPa
310 K | 488.84 kPa
312.11 K | 516.99 kPa
314.51 K | 550.49 kPa
314.52 K | 550.72 kPa
316.61 K | 581.22 kPa
320 K | 633.44 kPa
322 K | 665.79 kPa
324.13 K | 701.6 kPa
326 K | 734.19 kPa and 734.22 kPa
326.58 K | 744.59 kPa
328 K | 770.36 kPa
328.63 K | 781.99 kPa
330 K | 807.67 kPa
332 K | 846.32 kPa
332.15 K | 849.38 kPa
334 K | 886.42 kPa
334.71 K | 900.88 kPa
338.87 K | 989.76 kPa
342 K | 1060.5 kPa
342.57 K | 1073.8 kPa
344 K | 1107.8 kPa
344.84 K | 1128.1 kPa
347.48 K | 1193.6 kPa
350 K | 1258.8 kPa
354.89 K | 1392.5 kPa
357.13 K | 1457.2 kPa
360 K | 1543.1 kPa
362.41 K | 1618.3 kPa
364.65 K | 1690.7 kPa
367.12 K | 1773.1 kPa
370 K | 1872.6 kPa
373.25 K | 1990.5 kPa
375.82 K | 2087.2 kPa
377.95 K | 2170.2 kPa
380 K | 2252.2 kPa
382.69 K | 2363.4 kPa
385.14 K | 2468.3 kPa
387.96 K | 2593.6 kPa
390 K | 2687.2 kPa
390.02 K | 2688.3 kPa
392.64 K | 2812.8 kPa
392.7 K | 2815.5 kPa
394.37 K | 2897.1 kPa
394.77 K | 2917.1 kPa
397.49 K | 3055 kPa
399.62 K | 3166.9 kPa
400 K | 3187.2 kPa
400.09 K | 3191.9 kPa
400.19 K | 3197.4 kPa
402.45 K | 3320.9 kPa
402.46 K | 3321.8 kPa
403.93 K | 3404.5 kPa
404.71 K | 3449.2 kPa
405 K | 3465.7 kPa
405.99 K | 3523.6 kPa

Conditions | speed of sound [m/s]
270 K, 54.63 kPa | 203.09
270 K, 68.26 kPa | 202.24
270 K, 75.99 kPa | 201.75
270 K, 86.24 kPa | 201.09
270 K, 94.7 kPa | 200.54
270 K, 103.06 kPa | 200
270 K, 111.76 kPa | 199.42
280 K, 52.41 kPa | 206.99
280 K, 62.45 kPa | 206.43
280 K, 70.73 kPa | 205.97
280 K, 82.68 kPa | 205.28
280 K, 94.96 kPa | 204.58
280 K, 108.81 kPa | 203.77
280 K, 121.29 kPa | 203.03
280 K, 133.05 kPa | 202.32
280 K, 145.5 kPa | 201.57
290 K, 58.49 kPa | 210.38
290 K, 78.62 kPa | 209.35
290 K, 97.12 kPa | 208.38
290 K, 116.17 kPa | 207.38
290 K, 139.15 kPa | 206.14
290 K, 147.23 kPa | 205.68
290 K, 158.57 kPa | 205.07
290 K, 161.39 kPa | 204.9
290 K, 173.83 kPa | 204.22
290 K, 177.47 kPa | 204
290 K, 193.67 kPa | 203.09
300 K, 37.47 kPa | 214.93
300 K, 57.39 kPa | 214.01
300 K, 80.89 kPa | 212.92
300 K, 107.72 kPa | 211.65
300 K, 127.82 kPa | 210.67
300 K, 150.12 kPa | 209.58
300 K, 168.57 kPa | 208.67
300 K, 201.3 kPa | 207
300 K, 235.37 kPa | 205.23
310 K, 45.64 kPa | 218.03
310 K, 76.78 kPa | 216.71
310 K, 107.37 kPa | 215.4
310 K, 141.66 kPa | 213.88
310 K, 178.43 kPa | 212.23
310 K, 212.65 kPa | 210.65
310 K, 247.33 kPa | 209.01
310 K, 299.72 kPa | 206.46
320 K, 57.93 kPa | 220.96
320 K, 83.1 kPa | 219.97
320 K, 109.17 kPa | 218.94
320 K, 159.3 kPa | 216.91
320 K, 192.01 kPa | 215.56
320 K, 262.64 kPa | 212.56
320 K, 289.64 kPa | 211.37
320 K, 343.58 kPa | 208.94
320 K, 383.31 kPa | 207.1
330 K, 39.62 kPa | 224.99
330 K, 69.47 kPa | 223.92
330 K, 107.25 kPa | 222.55
330 K, 151.31 kPa | 220.92
330 K, 195.14 kPa | 219.27
330 K, 246.95 kPa | 217.27
330 K, 297.38 kPa | 215.27
330 K, 339.74 kPa | 213.55
330 K, 422.84 kPa | 210.06
330 K, 480.1 kPa | 207.54
